Experiment: xn = mol fraction of the nth substance listed

ClC(Cl)C(Cl)Cl + O=S1(=O)CCCC1
viscosity [mPa·s], 100 kPa
Conditions	x2 = 0.0224	x2 = 0.1377	x2 = 0.2568	x2 = 0.3746	x2 = 0.4803	x2 = 0.5855	x2 = 0.7134	x2 = 0.8418	x2 = 0.9751
303.15 K	1.674	2.8	3.962	5.052	5.983	6.858	7.865	8.855	9.835
308.15 K	1.537	2.519	3.525	4.469	5.292	6.043	6.927	7.779	8.631
313.15 K	1.417	2.285	3.173	4.004	4.72	5.396	6.171	6.937	7.691

COCCOCCOC + CCCCCCO
101 kPa
Conditions	viscosity [mPa·s]
293.15 K, x1 = 0.04448	4.368
293.15 K, x1 = 0.105	3.527
293.15 K, x1 = 0.1942	2.714
293.15 K, x1 = 0.3018	2.148
293.15 K, x1 = 0.4004	1.796
293.15 K, x1 = 0.4511	1.674
293.15 K, x1 = 0.6059	1.383
293.15 K, x1 = 0.6997	1.285
293.15 K, x1 = 0.7893	1.204
293.15 K, x1 = 0.9139	1.128
293.15 K, x1 = 0.9331	1.117
303.15 K, x1 = 0.04385	3.29
303.15 K, x1 = 0.09867	2.69
303.15 K, x1 = 0.1894	2.153
303.15 K, x1 = 0.2974	1.72
303.15 K, x1 = 0.4047	1.435
303.15 K, x1 = 0.4914	1.28
303.15 K, x1 = 0.6035	1.141
303.15 K, x1 = 0.7106	1.046
303.15 K, x1 = 0.7884	0.996
303.15 K, x1 = 0.9193	0.945
303.15 K, x1 = 0.942	0.937
313.15 K, x1 = 0.04597	2.536
313.15 K, x1 = 0.09846	2.162
313.15 K, x1 = 0.1996	1.706
313.15 K, x1 = 0.2989	1.412
313.15 K, x1 = 0.4011	1.226
313.15 K, x1 = 0.4983	1.089
313.15 K, x1 = 0.5998	0.991
313.15 K, x1 = 0.7041	0.916
313.15 K, x1 = 0.7993	0.866
313.15 K, x1 = 0.9072	0.825
313.15 K, x1 = 0.942	0.815

COCCOCCOC + CCCCCCCC
viscosity [mPa·s], 101.33 kPa
Conditions	x1 = 0.0946	x1 = 0.203	x1 = 0.2985	x1 = 0.3956	x1 = 0.4955	x1 = 0.5945	x1 = 0.697	x1 = 0.7972	x1 = 0.8977
298.15 K	0.515	0.535	0.561	0.594	0.636	0.681	0.748	0.807	0.884
303.15 K	0.485	0.503	0.536	0.557	0.593	0.636	0.686	0.746	0.82
308.15 K	0.458	0.475	0.501	0.523	0.556	0.596	0.641	0.695	0.762
313.15 K	0.432	0.448	0.473	0.493	0.524	0.559	0.604	0.65	0.712
318.15 K	0.41	0.425	0.446	0.466	0.493	0.523	0.575	0.61	0.667

ClC(Cl)C(Cl)Cl + CCCCCCCCC
303.15 K, 101 kPa
Conditions	viscosity [mPa·s]
x1 = 0.1552	0.651
x1 = 0.2636	0.704
x1 = 0.3332	0.742
x1 = 0.3926	0.77
x1 = 0.5196	0.836
x1 = 0.5976	0.879
x1 = 0.6903	0.943
x1 = 0.7468	0.991
x1 = 0.8858	1.163
x1 = 0.9204	1.235

CNc1ccccc1 + CCCCOCCO
viscosity [mPa·s], 101.3 kPa
Conditions	x2 = 0.0992	x2 = 0.2016	x2 = 0.3298	x2 = 0.4032	x2 = 0.4978	x2 = 0.6441	x2 = 0.7771	x2 = 0.8935
298 K	2.01	2.089	2.213	2.314	2.425	2.589	2.709	2.788
303 K	1.756	1.811	1.918	1.999	2.094	2.232	2.319	2.395
308 K	1.567	1.613	1.699	1.753	1.836	1.951	2.049	2.111
313 K	1.398	1.433	1.502	1.55	1.619	1.718	1.792	1.851
318 K	1.256	1.302	1.352	1.444	1.495	1.576	1.661	1.696

C1N2CN3CN1CN(C2)C3 + [2H]O[2H]
viscosity [mPa·s], 101 kPa
Conditions	x1 = 0.004002	x1 = 0.007971	x1 = 0.01158	x1 = 0.01549	x1 = 0.01969
293.15 K	1.217	1.252	1.311	1.396	1.515
298.15 K	1.106	1.141	1.189	1.258	1.35
300.15 K	1.007	1.036	1.077	1.135	1.219
305.15 K	0.92	0.962	1.002	1.049	1.108

From the CheMixHub viscosity set
